pEC50, pIC50: −log10 of the molar value. In brackets after ≈: the same amount, converted by molar mass. Several values for one entry are separate records, joined by “and”; a condition that tells them apart may be missing. Identical values can stand only once.
Tests used:
Plasmodium = assay: Antimalarial activity against Plasmodium; format: functional, organism-based
Plasmodium falciparum [1] = assay: Antimalarial activity against Plasmodium falciparum D6; format: functional, organism-based
Plasmodium falciparum [2] = assay: Antimalarial activity against Plasmodium falciparum W2; format: functional, organism-based
Plasmodium falciparum [3] = assay: Antimalarial activity against Plasmodium falciparum K1; format: functional, organism-based
Leishmania donovani = assay: Antileishmanial activity against Leishmania donovani MHOM-ET-67/L82; format: functional, organism-based
Trypanosoma brucei = assay: Antitrypanosomal activity against Trypanosoma brucei rhodesiense STIB 900; format: functional, organism-based
Trypanosoma cruzi = assay: Antitrypanosomal activity against Trypanosoma cruzi Tulahuen C2C4; format: functional, organism-based
[4] = Cytotoxicity against rat L6 cells assessed as reduction in cell viability; format: toxicity, cell-based
[5] = Selectivity index, ratio of IC50 for rat L6 cells to IC50 for Plasmodium falciparum K1; format: toxicity; conditions: L6 cells versus Plasmodium falciparum K1, read-out: Ratio IC50
Plasmodium falciparum [6] = assay: Antiplasmodial activity against chloroquine sensitive Plasmodium falciparum K1; format: functional, organism-based
Plasmodium falciparum [7] = assay: Antiplasmodial activity against chloroquine sensitive Plasmodium falciparum FCCI-HN assessed as decrease in parasitemia level incubated for 24 hrs by Giemsa staining method; format: functional, organism-based
Plasmodium falciparum [8] = assay: Antimalarial activity against Plasmodium falciparum NF54 assessed as delayed-death phenotype incubated 72 to 96 hrs by SYBR green staining method; format: functional, organism-based
Plasmodium falciparum [9] = assay: Antimalarial activity against Plasmodium falciparum; format: functional, organism-based
Plasmodium falciparum [10] = assay: Antimalarial activity against chloroquine sensitive Plasmodium falciparum FcM29-Cameroon in human RBC; format: functional, organism-based; conditions: Erythrocyte
Plasmodium falciparum [11] = assay: Antimalarial activity against Plasmodium falciparum incubated for 72 hrs by SYBR green I-based assay; format: functional, organism-based

Question: Which IC50 (Plasmodium) does the source give for `Oc1cccc2c1[nH]c1c(C3=C[C@@]4(O)CC/C=C\CCCCN5CC[C@@H]3[C@]3(C[C@@H]6/C=C\CCCCN6[C@H]34)C5)nccc12` here?
Answer: The IC50 was 6.1 ng/mL (≈ 0.0108 µM).

Question: What about the IC50 (Plasmodium falciparum [1]) of the same molecule?
Answer: The IC50 was 6 ng/mL (≈ 0.0106 µM).

Question: What about the IC50 (Plasmodium falciparum [2]) of the same molecule?
Answer: The IC50 was 8 ng/mL (≈ 0.0142 µM).

Question: With `Brc1ccc2[nH]c3c[n+](Cc4cccc5ccccc45)ccc3c2c1` as the molecule, how does the pIC50 (Plasmodium falciparum [3]) read?
Answer: The pIC50 was 6.32.

Question: And the pIC50 (Leishmania donovani)?
Answer: The pIC50 was 4.75.

Question: What about the pIC50 (Trypanosoma brucei) of the same molecule?
Answer: The pIC50 was 5.39.

Question: What about the pIC50 (Trypanosoma cruzi) of the same molecule?
Answer: The pIC50 was 5.12.

Question: What about the pIC50 [4] of the same molecule?
Answer: The pIC50 was 5.29.

Question: And the selectivity ratio [5]?
Answer: The selectivity ratio was 11.

Question: With `CC(=O)OC1=CO[C@@H](O[C@@H]2O[C@H](CO)[C@@H](O)[C@H](O)[C@H]2O)[C@H]2[C@@H]1C[C@@]13O[C@@H]2CN1CCC1c2ccccc2NC13` (stereo partly drawn) as the molecule, how does the pIC50 (Plasmodium falciparum [6]) read?
Answer: The pIC50 was 5.17.

Question: With `C/C=C(/CO[C@@H]1O[C@H](CO)[C@@H](O)[C@H](O)[C@H]1O)c1cc2n(c(=O)c1CO)CCc1c-2[nH]c2ccccc12` as the molecule, how does the pIC50 (Plasmodium falciparum [7]) read?
Answer: The pIC50 was 5.01.

Question: With `O=c1c(O[C@@H]2OC[C@](O)(CO[C@@H]3O[C@H](CO)[C@@H](O)[C@H](O)[C@H]3O)[C@H](O)[C@H]2O)cc2nccc3c4ccccc4n1c23` as the molecule, how does the pIC50 (Plasmodium falciparum [6]) read?
Answer: The pIC50 was 4.60.

Question: What does the source list for `Brc1cccc2c1[nH]c1c[n+](Cc3cccc4ccccc34)ccc12`?
Answer: pIC50 (Plasmodium falciparum [3]): 6.30; pIC50 (Leishmania donovani): 4.33; pIC50 (Trypanosoma brucei): 5.36; pIC50 (Trypanosoma cruzi): 5.10; pIC50 [4]: 5.43; selectivity ratio [5]: 7

Question: With `C/C=C1/COC(=O)c2c1cc1n(c2=O)CCc2c-1[nH]c1c(O[C@@H]3O[C@H](CO)[C@@H](O)[C@H](O)[C@H]3O)cccc21` as the molecule, how does the pIC50 (Plasmodium falciparum [7]) read?
Answer: Its pIC50 is 4.38.

Question: With `O=C(O)C1Cc2c([nH]c3ccccc23)C(c2ccc(Cl)cc2Cl)N1` (stereo not drawn) as the molecule, how does the pIC50 (Plasmodium falciparum [8]) read?
Answer: The pIC50 was 3.68.

Question: With `CC1(C)Cc2c([nH]c3ccccc23)C2(N1)C(=O)Nc1ccc(Cl)cc12` (racemic) as the molecule, how does the pIC50 (Plasmodium falciparum [9]) read?
Answer: Its pIC50 is 8.57.

Question: With `COC(=O)C1=CO[C@@H](C)[C@@H]2CN3CCc4c([nH]c5ccc(OC)cc45)[C@@H]3C[C@H]12` [ARICINE] as the molecule, how does the IC50 (Plasmodium falciparum [10]) read?
Answer: The IC50 was 0.3 µg/mL and 690 nM.

Question: With `COC(=O)[C@@H]1[C@H]2C[C@H]3c4[nH]c5ccccc5c4CCN3C[C@@H]2CC[C@@H]1O` [YOHIMBINE] as the molecule, how does the pEC50 (Plasmodium falciparum [11]) read?
Answer: Its pEC50 is < 4.30.

Source: ChEMBL document CHEMBL5096184, “Structure activity relationship in β-carboline derived anti-malarial agents” (Eur J Med Chem, 2021)
